Converted amounts (≈) assume the structure as drawn. Where a SMILES comes first, the peptide text is derived from it. The star is where a group is joined. Decanoyl = CCCCCCCCCC(=O)*
Legend:
[1] = tested on: Trichophyton mentagrophytes; assay: minimal growth inhibitory concentration (MIC) test, agar dilution; type: cell-based; conditions: 168 h, Sabouraud glucose agar medium, 25° C., 7 days, read-out: minimal growth inhibitory concentration against Trichophyton mentagrophytes
Procedure: (§1) The compound of Synthetic Example 1 was subjected to a minimal growth inhibitory concentration (MIC) test against Propionibacterium acnes (P. acnes) and Trichophyton mentagrophytes (T. mentagrophytes). The test method is shown below. (1) Preparation of Test Bacterial Culture Propionibacterium acnes: Anaerobically cultured in a GAM agar medium at 35° C. for 48 hr. A part thereof was transplanted into a GAM bouillon medium, and anaerobically cultured at 35° C. for 24 hr. The culture medium was diluted with GAM bouillon medium to adjust to about 10^6 cells/mL and used as a test bacterial culture. Trichophyton mentagrophytes: Test bacteria were cultured in a Sabouraud glucose agar medium at 25° C. for 7-14 days, spore and hypha pick were scraped with a platinum loop, suspended in polysorbate 80 0.05% sterile saline and ground in a homogenizer. The solution was filtered through sterile gauze folded in four, and diluted with polysorbate 80 0.05% sterile saline to adjust to about 10^6 cells/mL and used as a test bacterial culture. (2) Preparation of Antimicrobial Agent Dilution Solution A sample was diluted with sterile purified water to prepare a 100000-1000 μg (active ingredient)/mL dilution series. (3) Preparation of Antimicrobial Agent-Added Agar Medium The agar medium was dispensed by 9.0 mL into a test tube and, after autoclave sterilization, and incubated in a molten state at 50° C. […]

[2] = tested on: Propionibacterium acnes; assay: as above; type: cell-based; conditions: Cutibacterium acnes; GAM agar medium, 35° C., 48 hr anaerobic culture; read-out: minimal growth inhibitory concentration against Propionibacterium acnes
Procedure: as §1

**Q.** Which MIC [1] does the source give for `CCCCCCCCCC(=O)N1CCC[C@H]1C(=O)N1CCC[C@H]1C(=O)O` [Synthetic Example 1, decanoyl prolylproline] (Decanoyl-Pro-Pro-OH) here?
**A.** 1000 to 1500 µg/mL (≈ 2.73 to 4.09 mM)

**Q.** And the MIC [2]?
**A.** 2000 to 3000 µg/mL (≈ 5.46 to 8.19 mM)

— US9464110B2, “Acyl dipeptide derivative” (AJINOMOTO CO., INC., priority 2012, dated 2016)
